Patent publication US12564635B2, “Long-lived gadolinium based tumor targeted imaging and therapy agents” (WISCONSIN ALUMNI RESEARCH FOUNDATION, priority 2015, dated 2026)

Tests used:
[1] = at this field strength (4.7 T); cited from earlier work
[2] = MR relaxivity (r1, r2) at 4.7 T; type: physicochemical
Method: For initial studies, relaxivity was measured at 4.7 T. Longitudinal relaxivity, which is defined by the linear relationship between R1 relaxation rate and concentration, was measured using an inversion recovery spin echo sequence.
Higher relaxivity results in brighter signal on a T1-weighted image, and thus indicates greater T1-weighted signal enhancement potential. […]
Similarly, by plotting R2 versus concentration at five different concentrations of the Gd-DOTA-404 agent and determining the equation of the resulting line (see FIG. 3, right panel), we calculated a transverse relaxivity in plasma of 20.4 s−1/mM.

[3] = tested on: orthotopic glioblastoma stem cell line 12.6; assay: Brain tumor uptake by MRI in orthotopic glioblastoma model; type: in vivo, mouse
Method: To investigate the use of Gd-DO3A-404 to detect tumors and metastases in situ, in particular, in the brain, we created an orthotopic glioblastoma model using cancer stem cells injected into the brain. To create the model, brains of mice were injected with cells from orthotopic glioblastoma stem cell line 12.6. After sufficient tumor growth, monitored with T2-weighted MRI, we imaged subjects pre-contrast and after delivery (24-72 hours) of two different doses of Gd-DO3A-404 (2.5 or 3.7 mg; ˜0.12−0.18 mmole/kg).

[4] = tested on: flank U87 (human glioma) tumor; assay: In vivo MRI of flank U87 xenograft mice
Method: To test uptake and retention in rodent models of human cancer, flank xenografts were established in mice for two distinct tumor types, A549 (human non small cell lung cancer, NSCLC) and U87 (human glioma). N=3 for each model. For pre-contrast imaging, T1-W images of the tumor and abdomen (FIG. 4; 2 leftmost images) and T1 maps of the tumor were obtained.
At time zero (“contrast”), 2.5 mg of Gd-DO3A-404 (˜12 mmol/kg body mass) was delivered into the mice by intravenous injection. Animals were scanned pre-contrast and at various time points between one hour and seven days post-contrast (after one hour, 24 hours, 48 hours, three days, four days and seven days). T1 maps of the tumor were acquired for each time point, along with T1-weighted images of the tumor and the abdomen (see FIGS. 4 and 5).
We the quantified the tumor to muscle ratio and compare it to baseline scans.

[5] = tested on: Alpha-beta crystalline overexpressing mice (triple negative breast cancer model); assay: MRI uptake in triple-negative breast cancer model; type: in vivo, mouse; conditions: over 48 hours post-administration; FIG. 17
Method: Alpha-beta crystalline overexpressing mice (a triple negative breast cancer model) underwent MR imaging pre administration and 24 hours and 48 hours post-administration of […] (n=4).

[6] = tested on: flank U87 (human glioma) xenograft; assay: Simultaneous PET/MR imaging of U87 flank xenograft rat; type: in vivo
Method: Simultaneous imaging was performed using a clinical Pet/MRI scanner. ^64Cu-DO3A-404 has the same structure as Gd-DO3A-404, except that ^64Cu, a positron emitting radionuclide, is chelated to the chelating moiety instead of Gd. ^64Cu-DO3A-404 was synthesized (and can be synthesized using the methods disclosed herein; see, e.g., Example 1). Both the ^64Cu-DO3A-404 and Gd-DO3A-404 chelates were injected simultaneously into a rat with a flank U87 (human glioma) xenograft.
T1-weighted scans of the U87 flank xenograft were obtained using the clinical 3.0 T PET/MR. Rats were imaged pre- and 24 hours post-administration of the Gd-DO3A-404.
Simultaneous PET/MR scans of the U87-flank bearing rat 24 hours post-simultaneous administration of both Gd-DO3A-404 (the MRI contrast agent) and ^64Cu-DO3A-404 (the PET contrast agent) were obtained.

[7] = tested on: flank A549 tumor (human non small cell lung cancer) xenograft; assay: In vivo MRI of flank A549 xenograft mice; parameters: species or system mouse
Method: For proof-of-concept in vivo imaging of tumor uptake of the Gd-DO3A-404 agent, nude athymic mouse with a flank A549 tumor (non small cell lung cancer) xenograft was scanned. […] Mice were anesthetized and scanning performed prior to contrast administration and at 1, 4, 24, 48, and 72 hours following contrast delivery. Imaging was performed on a 4.7 T Varian preclinical MRI scanner with a volume quadrature coil. T1-weighted images were acquired at all imaging time points using a fast spin echo scan with the following pulse sequence parameters: repetition time (TR)=206 ms, echo spacing=9 ms, echo train length=2, effective echo time (TE)=9 ms, 10 averages, with a 40×40 mm^2 field of view, 192×192 matrix, 10 slices of thickness lmm each.

[8] = tested on: Orthotopic GSC 115 (human glioma stem cell model); assay: MRI uptake in orthotopic GSC 115 model; type: in vivo; conditions: 24 hours post administration; FIG. 18 right
Method: Orthotopic GSC 115 was imaged at 24 hours post administration of Gd-DO3A-404. GSC is a human glioma stem cell model which was isolated from a human glioma patient.

[9] = tested on: orthotopic U87 xenografts; assay: MRI uptake in orthotopic U87 xenografts; type: in vivo, mouse; conditions: NOD-SCID mice; 24 and 48 hours post administration; FIG. 18 left
Method: NOD-SCID mice with orthotopic U87 xenografts were imaged pre-administration, 24 hours, and 48 hours post administration of Gd-DO3A-404.

A549 flank tumor = assay: Tissue biodistribution by SF-ICPMS in A549-flank bearing mice; type: in vivo, mouse; conditions: 72 hours after administration; FIG. 16
Method: In this extension of Example 6, we further examined the in vivo biodistribution of Gd-DO3A-404 after it is administered. Specifically, tissue biodistribution was measured in A549-flank bearing mice 72 hours after administration of Gd-DO3A-404. Nude athymic mice were sacrificed, perfused and tissues were collected and quantitated for Gd by high-resolution (magnetic-sector) inductively-coupled plasma mass spectrometry (SF-ICPMS). n=3 mice.

[10] = In vivo biodistribution by T1-weighted SPGR MRI of the abdomen; parameters: species or system mouse; conditions: 2.5 mg intravenous
Method: In this example, we determined the in vivo biodistribution of the Gd-DO3A-404 after the contrast agent was administered (see Example 5). During the course of performing the experiments described in Example 4, we also acquired T1-weighted spoiled gradient (SPGR) images in the abdomen of the mice, to observe biodistribution. Abdominal cross-sections imaged included the myocardium (FIGS. 8-12, top image), the liver (FIGS. 8-12, center image), and a kidney (FIGS. 8-12, bottom image). Images are shown pre-contrast (FIG. 8), and at one hour (FIG. 9), 24 hours (FIG. 10), four days (FIG. 11) and seven days post-contrast (FIG. 12).

[11] = Free Gd concentration by CHELEX solid phase extraction and ICP-MS; type: physicochemical; conditions: CHELEX solid phase extraction, magnetic sector ICP-MS
From the text: After considering other alternatives, we decided to determine free Gd concentration by selective chelation and separation of the free Gd. We separated the Gd-DO3A-404 complex from free Gd (III) ion by CHELEX® solid phase extraction (as described by Raju, et al., J. Anal. At. Spectrom. 25 (2010), 1573-1580). Specifically, using a CHELEX® solid phase extraction column comprising an immobilized ligand (iminodiacetate) with very high affinity for free ion species of multi-valent transition and rare-earth metals, Gd was retained and then eluted using a known ratio of chelated Gd-DO3A-404 and acid-digested Gd-DO3A-404. The sample was the analyzed by magnetic sector ICP-MS to determine the concentration of free Gd.

In the case of `CNC[C@H](O)[C@@H](O)[C@H](O)[C@H](O)CO.O=C([O-])CN1CCN(CC(=O)[O-])CCN(CC(=O)O)CCN(CC(=O)[O-])CC1.[Gd+3]` [DOTAREM®], the “relaxivities of clinical T1 shortening contrast agents” value [1] is listed as 2 to 3 s⁻¹ mM⁻¹.
In the case of `C[N+](C)(C)CCOP(=O)([O-])OCCCCCCCCCCCCCCCCCCc1ccc(NC(=O)CN2CCN(CC(=O)[O-])CCN(CC(=O)[O-])CCN(CC(=O)[O-])CC2)cc1.[Gd+3]` [Gd-DO3A-404], the “Longitudinal relaxivity (r1)” value ([2]; in excipient) was 5.84 s⁻¹ mM⁻¹, the “Longitudinal relaxivity (r1)” value ([2]; in plasma) was 5.74 s⁻¹ mM⁻¹ and the “Longitudinal relaxivity (r1)” value ([2]; in saline) was 5.68 s⁻¹ mM⁻¹. For the same compound, the brain tumor uptake ([3]; increased dose 3.7 mg, FIG. 15 bottom panel) was “uptake in one subject”, the brain tumor uptake ([3]; lower dose 2.5 mg, FIG. 15 upper panel) was “no brain uptake was observed” and the “tumor to muscle T1-weighted signal ratio following delivery” value ([4]; 2.5 mg intravenous, U87, versus pre-contrast, FIG. 6) was “approximately doubled”. The “onset of tumor uptake” value ([4]; 2.5 mg intravenous, U87 model, FIG. 4) was “already observable at one hour after delivery”, the “level and duration of tumor uptake compared with NSCLC model” value ([4]; 2.5 mg intravenous, U87 model, FIG. 5) was “appeared to reach higher levels and was maintained for a longer time period” and the “tumor R1 relaxation rate” value ([4]; U87, 48 hours post-contrast versus pre-contrast, FIG. 7) was “significantly increased”. The “uptake in breast cancer tissue by MRI” value [5] was “taken up by and localized to the breast cancer tissue”, the “tumor uptake by T1-weighted MR (clinical 3.0 T PET/MR)” value ([6]; 24 hours post-administration, FIG. 19) was “selective tumor uptake” and the “tumor enhancement in MRI images (simultaneous PET/MR)” value ([6]; 24 hours post-simultaneous administration, FIG. 20) was “enhanced enhances in both the T1 and T2 MRI images”. For the same compound, the “tumor to muscle T1-weighted signal ratio following delivery” value ([7]; 2.5 mg intravenous, A549, versus pre-contrast, FIG. 6) was “approximately doubled”, the “time of maximum tumor uptake” value ([7]; 2.5 mg intravenous, NSCLC model, FIG. 4) was 24-48 hours post-contrast and the “duration of tumor uptake” value ([7]; 2.5 mg intravenous, NSCLC model, FIG. 5) was “maintained over several days”. The “MRI imaging of the tumor (T1-weighted enhancement)” value ([7]; 2.7 mg via tail vein injection, scans 1-72 hours, FIG. 2) was “significantly enhanced by 24 hours post-injection”, the “tumor R1 relaxation rate” value ([7]; A549, 48 hours post-contrast versus pre-contrast, FIG. 7) was “significantly increased” and the “tumor uptake by T1-weighted MRI” value [8] was “differentially taken up by the tumor tumor tissue”. The “tumor uptake by T1-weighted MRI” value [9] was “differentially taken up by the tumor tissue”, the “tissue biodistribution (Gd by SF-ICPMS)” value (A549 flank tumor) was “selectively taken up by tumor tissue” and the P-kinetic profile [10] was “including hepatobiliary excretion, that is similar to that of related alkylphosphocholine analogs”. The “circulation in the myocardium and blood pool” value ([10]; FIGS. 8-12) was “circulates for nearly up to a day”, the “clearance from liver and kidney” value ([10]; up to seven days, FIGS. 8-12) was “substantially cleared over time, with more rapid clearance occurring through the liver, and more prolonged clearance occurring through the kidney” and the “free Gd concentration” value [11] was 0.081%.
